One test concerns BALB/MK karatinocytes. Briefly: [3H]-thymidine incorporation, measurement of biological activities. Type of test: cell-based. Particulars: FIG. 5; for biological activity compared with natural thymosin β-4: BALB/MK keratinocytes, thymidine incorporation. The protocol:
The biological activities of the purified acetyl-octapetide of Example 2 were evaluated using BALB/MK karatinocytes according to Falco et al method to measure [^3H]-thymidine incorporation (Falco, et al. (1988) Oncogene., 2, 573). BALB/MK karatinocytes were cultured in 250 ml-flasks containing EMEM (Eagle's minimal essential media, Gibco, U.S.A.) supplemented with […] (fetal bovine serum). BALB/MK karatinocytes cultured were treated with 0.25% trypsin solution to detach cells from the bottom of culture flasks and centrifuged to collect cell pellets. Cells were resuspended in EMEM not containing FBS, its aliquot, 2×10^4 cells/0.3 ml medium was added to each well of 24-well plates and cultured under 7% CO2 for 24 hr at 37° C. 2 ng/ml of the acetyl octapeptide prepared in Example 2 was serially diluted by two-fold using EMEM containing 0.2 (w/v) % bovine serum albumin and 0.3 ml of the diluted peptide was added to each well, followed by additional culturing under 7% CO2 for 6 hr at 37° C. Afterwards, 0.5 μCi of [^3H]-thymidine (Amersham, TRK 686, 68 Ci/mmol) was added to each well and incubated overnight. After removing supernatants, cells were washed once using PBS (phosphate buffered saline) and incubated with 0.1 ml of 0.25% trypsin solution for 5 min at 37° C. to detach cells from the bottom of plates. 0.5 ml of EMEM containing 10% FBS was added to each well and cells were adhered to glass fiber filters using a cell harvester (12 well cell harvester, Millipore, U.S.A.). The filters were washed once with 1 ml of distilled water and once with 1 ml of ethanol, and kept to stand for 30 min at 60° C. for drying. The dried filters were added along with 2 ml of scintillation cocktail to scintillation vials and allowed to stand for 30 min at room temperature, after which radioactivity incorporated into cells was determined using a scintillation counter (Beckman, U.S.A) as shown in FIG. 5.
In general terms: Uptake of a labelled nucleoside into DNA is a usual measure of proliferation.

Another test concerns C3H/HeN mice. Briefly: Hair-growth activities in mice with hair removed. Type of test: in vivo. Particulars: Formulation Example 5 applied on back for 25 days, initial hair growth effects, hair length and number, FIG. 12. From the text: The hairs of the back portions of C3H/HeN mice were completely removed using a hair cutter and a hair loss-inducing substance. One day later, Formulation Example 5 (cosmetic liquid) was applied onto the back portions for 25 days and then hair growth was observed.

The next test deals with procollagen. Briefly: Procollagen level in HaCaT cell line (Procollagen ELISA kit). Particulars: HaCaT keratinocytes, 1 μg/ml; FIG. 9. Format: cell-based, human. How it is done:
(§1) Furthermore, HaCaT cell line was treated with the acetyl-octapeptide of this invention (1 μg/ml) and the level of procollagen, one of indicators to show the improvement in skin wrinkle, was examined (FIG. 9). The level of procollagen was measured using Procollagen ELISA kit (Takara). For verifying effects on levels of hyaluronic acid, another indicator representing the improvement in skin wrinkle, HaCaT cell line was incubated with the acetyl-octapeptide of this invention (5 μmole) and the level of hyaluronic acid was measured using Hyaluronic acid ELISA kit (Echelon Biosciences Inc, USA) (FIG. 10).
For orientation: ELISA stands for enzyme-linked immunosorbent assay.

Another test deals with HaCaT keratinocytes. Briefly: SRB colorimetric assay, growth of HaCaT keratinocytes. Type of test: cell-based, human. The conditions noted are these: 10 ng/ml or 1,000 ng/ml, 72 hr, serum-free medium; FIGS. 7 and 8. The protocol: To analyze effects of peptides of this invention on proliferation of keratinocytes, SRB (Sulforhodamine B) colorimetric assay was carried out using HaCaT kerationcyte according to Rizzino et al method (Rizzino, et al. Cancer Res., 48:4266 (1988)). HaCaT ketatinocytes (The Korean Cell Line Bank) were cultured in 250 ml-flasks containing EMEM (Eagle's minimal essential media, Gibco, U.S.A.) supplemented with […] (fetal bovine serum). HaCaT ketatinocytes cultured were treated with 0.25% trypsin solution to detach cells from the bottom of culture flasks and centrifuged to collect cell pellets. Cells were resuspended in EMEM not containing FBS, its aliquot (4×10^3) cells was added to each well of 96-well plates and cultured under 7% CO2 for 24 hr at 37° C. After 24-hr culture, the medium was changed with a fresh medium not containing serum and cells were incubated with thymosin β-4 or the acetyl-octapeptide (10 ng/ml or 1,000 ng/ml) dissolved in 10% DMSO for 72 hr under the same conditions as described above. After removing supernatants, cells were washed once using PBS (phosphate buffered saline) and incubated with SRB solution (Sigma-Aldrich). Cells were washed with PBS and observed under a microscope to find cell viability. In addition, absorbance at 590 nm was measured to analyze cell proliferation (FIG. 7). […]
Background: The SRB assay estimates cell density from bound dye.

The test system of a further test is hyaluronic acid. The experiment in a line: Hyaluronic acid level in HaCaT cell line (Hyaluronic acid ELISA kit). Format: cell-based, human. The conditions noted are these: HaCaT keratinocytes, 5 μmole; FIG. 10. How it is done:
as §1

This is an account of results in patent publication US8106017B2, “Peptides for promoting hair growth and improving wrinkle and cosmetic compositions comprising the same” (Caregen Co., Ltd., priority 2005, dated 2012).

With “Ac-Lys-Leu-Lys-Lys-Thr-Glu-Thr-Gln-OH (Ac-KLKKTETQ-OH) [acetyl octapeptide]”, the “[3H]-thymidine incorporation into keratinocytes” value with BALB/MK karatinocytes (2 ng/ml serially diluted two-fold) was “promotes thymidine incorporation into kerationcytes in a dose-dependent fashion”. The “biological activity compared with natural thymosin β-4” value in the test on BALB/MK karatinocytes is on record as “high biological activities similar to intact Tβ-4F”; with BALB/MK karatinocytes (listed as present peptide), “biological activities almost identical to natural-occurring Tβ4”. For the same substance, in the test with C3H/HeN mice, the “increase of hair growth compared with control” value is given as 25-30%. Besides, in the test on procollagen, the “level of procollagen in cells” value is given as “increased in a dose-dependent manner”. Further, the “cell viability / proliferation of HaCaT keratinocytes versus control” value in the test on HaCaT keratinocytes was “much higher cell viability than control”. The “level of hyaluronic acid in cells” value with hyaluronic acid is “increased in a dose-dependent manner”.
